# Results reported in patent US11932602B2, “Method for preparing nicotinamide mononucleotide cocrystal” (BONTAC BIO-ENGINEERING(SHENZHEN) CO., LTD, priority 2021, dated 2024).
# Conditions: screened with a sieve (1.00 mm, No. 18), poured into glass graduated measuring cylinder, apparent volume
# Experimental: The tops were scraped flat. The apparent volumes were recorded. The bulk densities were calculated.
compound,measurement,value
"NC(=O)c1ccc[n+]([C@@H]2O[C@H](COP(=O)([O-])O)[C@@H](O)[C@H]2O)c1 [Form 1, nicotinamide mononucleotide anhydrous crystal (form 1)]",Bulk density,0.15 g/mL
